Reference: US11542304B2, “Multimeric bicyclic peptide ligands” (BicycleTx Limited, priority 2018, dated 2023)
Starred links: 1 amine or outer side, 2 acyl side, 3 side chain; linkers in the order of their positions; H or OH if unused. Positions of bridges follow the written chain, without caps; N, C: chain ends. Non-standard residues stand in square brackets, D forms with d. Chains are numbered I, II in the order given. X1 = O=C(CCOCCN(CCOCCC(=O)NCCOCCOCCOCCOCCOCCOCCOCCOCCOCCOCCn1cc(CCC(=O)[*:2])nn1)CCOCCC(=O)NCCOCCOCCOCCOCCOCCOCCOCCOCCOCCOCCn1cc(CCC(=O)[*:3])nn1)NCCOCCOCCOCCOCCOCCOCCOCCOCCOCCOCCn1cc(CCC(=O)[*:1])nn1; TATA = O=C(CC[*:1])N1CN(C(=O)CC[*:2])CN(C(=O)CC[*:3])C1; Nle = CCCC[C@H](N)C(=O)O

Tests used:
[1] = Pharmacokinetics of Bicycle multimers in CD-1 mice; conditions: 5 mg/kg IV, male CD-1 mice; FIGS. 5A and 5B
Description: Male CD-1 mice were dosed with 5 mg/kg of each Bicycle multimer formulated in 25 mM Histidine HCl, 10% sucrose pH 7 via tail vein injection. Serial bleeding (about 80 μL blood/time point) was performed via submandibular or saphenous vein at each time point. All blood samples were immediately transferred into prechilled microcentrifuge tubes containing 2 μL K2-EDTA (0.5M) as anti-coagulant and placed on wet ice. Blood samples were immediately processed for plasma by centrifugation at approximately 4° C., 3000 g. The precipitant including internal standard was immediately added into the plasma, mixed well and centrifuged at 12,000 rpm, 4° C. for 10 minutes. The supernatant was transferred into pre-labeled polypropylene microcentrifuge tubes, and then quick-frozen over dry ice. The samples were stored at 70° C. or below as needed until analysis. 7.5 μL of the supernatant samples were directly injected for LC-MS/MS analysis using an Orbitrap Q Exactive in positive ion mode to determine the concentrations of Bicycle multimer. Plasma concentration versus time data were analyzed by non-compartmental approaches using the Phoenix WinNonlin 6.3 software program. C0, Cl, Vdss, T1/2, AUC(0-last), AUC(0-inf), MRT(0-last), MRT(0-inf) and graphs of plasma concentration versus time profile were reported.

[2] = molecular target: CD137 (Homo sapiens, UniProt Q07011); assay: CD137 Promega reporter cell activity assay (NF-κB luciferase in Jurkat cells); conditions: Average fold induction for CD137L = 4.0
[3] = clinical testing, cited from earlier work

CD137, sequence (Q07011 24-255): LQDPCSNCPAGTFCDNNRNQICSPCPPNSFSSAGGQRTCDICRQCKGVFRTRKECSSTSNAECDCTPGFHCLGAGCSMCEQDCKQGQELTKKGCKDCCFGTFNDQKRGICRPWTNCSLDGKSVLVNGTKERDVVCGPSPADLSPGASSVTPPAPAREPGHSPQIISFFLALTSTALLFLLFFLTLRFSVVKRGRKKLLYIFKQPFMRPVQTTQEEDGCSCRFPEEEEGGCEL

Row | Substance | systemic elimination (plasma concentration after IV dosing) [1] | Average Relative Fold Induction relative to CD137L [2] | dose up to which hepatotoxicity was not observed ([3]; solid tumors) | single agent activity [3]
1 | I: Ac-ACIEKGQYCFADPY[Nle]CA-NH2 / II: Ac-ACIEKGQYCFADPY[Nle]CA-NH2 / III: Ac-ACIEKGQYCFADPY[Nle]CA-NH2 (linker I:2-I:9-I:16, II:2-II:9-II:16, III:2-III:9-III:16 via TATA; linker I:5-II:5-III:5 via X1) [BCY7835] | retain the property of rapid systemic elimination | 1.04 | – | –
2 | utomilumab | – | – | up to 5 mg/kg | little or no single agent activity
